According to US12611387B2, “Compound and composition for inducing neuroprotection” (REST THERAPEUTICS, priority 2020, dated 2026):

Assays:
[1] = tested on: non-intoxicated mice; test: Y-maze, amnestic effect in non-intoxicated mice; assay type: in vivo; conditions: 10 mg/Kg i.p.
Procedure: The spontaneous alternation test was used to assess spatial working memory (very short-term memory) in rodents. The maze was made of grey opaque polyvinylchloride (PVC). Each arm was 40 cm long, 13 cm high, 3 cm wide at the bottom, and 10 cm wide at the top. The arms converged towards one another at an equal angle between the different arms. In brief, each mouse was placed at the end of one arm and allowed to move freely during an 8 min session. The mouse's entries into each arm, including the arm at whose end it was placed, are recorded. An alternation is defined as the animal's successive entry into three different arms. The number of maximum alternations is thus the total number of entries into each arm minus 2 and the percentage of alternation was calculated according to the formula: % Alt=number of actual alternations/maximum number of alterations×100
The parameters measured included the percentage of alternations (memory index) and the total number of entries into the arms of the maze (exploration index, Maurice et al., 1994, 1996; Meunier et al., 2006, 2013; Villard et al., 2009, 2011). Data from the animals showing extreme behaviour (percentage of alternation <25% or >90%, or a number of entries less than 10) were excluded from the calculations. The attrition rate was routinely 5%. Under normal conditions, a mouse will spontaneously alternate exploring each of the arms. A mouse with impaired memory and/or orientation abilities will have a lower percentage of alternations.
In this experiment, memantine and FENM were administered at a dose of 10 mg/Kg i.p. and the performance of the mice was tested using the passive avoidance test and the Y-maze with non-intoxicated mice.

[2] = tested on: Aβ25-35 oligomer-intoxicated mice; test: Passive avoidance test, neuroprotection design; assay type: in vivo; conditions: doses 0.03; 0.1; 0.3; 1.0 and 3 mg/Kg i.p., neuroprotection design (not shown)
Procedure: (§1) The neuroprotective effect of the compounds, i.e. the ability thereof to protect cells from Aβ25-35 oligomer neurotoxicity and neurodegeneration, is also tested (FIG. 10). The test compounds are thus administered on the same day as the injection of the Aβ25-35 oligomers and are continued to be administered on a daily basis up to day 7 after the injection of the oligomers, at which time the mice are subjected to the YMT, PAT, MWT or ORT. The brain's anatomy is analysed and neuronal cells are counted by immunohistochemistry on mice sacrificed at D13. The biochemical analyses for the quantification of markers of oxidative stress and apoptosis were carried out at D16 on a group of mice that had been subjected to the WMT (FIG. 10).
This test measures non-spatial (contextual) long-term memory. The apparatus used for this test was a box with two compartments (15×20×15 cm high), one illuminated with white PVC walls and the other in the dark with black PVC walls and a grid floor. A guillotine door separated the compartments. A 60 W lamp was positioned 40 cm above the box and illuminated the white compartment. […] The time taken by the mouse to re-enter the darkened compartment (STL-Tg) and the number of vocalizations were recorded. […] After 5 s the door was raised, the step-through latency (STL-R), i.e. the time it took the mouse to enter the darkened compartment, was measured. […]

[3] = tested on: GFAP; test: Immunohistochemical quantification of GFAP (astrogliosis); assay type: in vivo, mice; conditions: 0.3 mg/Kg i.p.
Procedure: as §1
They were previously anaesthetised by i.p. injection of 200 μL of a solution of ketamine (80 mg/Kg) and xylazine (10 mg/Kg), then the tissues were fixed by intracardiac perfusion of 50 mL of a saline solution followed by 50 mL of Antigenfix® fixative (Diapath). The samples were kept for a further 48 hours in the fixative at 4° C., and then the mouse brains were stored in a 30% sucrose solution in PBS, before being sliced.
Slices were taken of each area of the brain, in particular the cortex, the nucleus basalis magnocellularis and the hippocampus (i.e. between bregma +1.8 and bregma −2.8 according to the stereotaxic coordinates of the mouse brain, Paxinos et al., 2004). Serial coronal sections with a thickness of 25 μm were cut with a freezing microtome (Microm HM 450, Thermo Fisher) and stored at −20° C. in a cryoprotective solution. […]
Immunohistochemical labelling is carried out in a conventional manner. […] After rinsing with PBS, the sections were mounted in a mounting fluid (ProLong, ThermoFischer) and images of each section were taken with a confocal fluorescence microscope (Leica SPE) for different sub-regions of the hippocampus such as the stratum radiatum (Rad), the stratum moleculare (Mol), the polymorphic layer of the dentate gyrus (PoDG) and for the cortex, the lateral parietal association area (LPtA). […]

[4] = tested on: non-intoxicated mice; test: Passive avoidance test, amnestic effect in non-intoxicated mice; assay type: in vivo; conditions: 10 mg/Kg i.p.
Excerpt: This test measures non-spatial (contextual) long-term memory. The apparatus used for this test was a box with two compartments (15×20×15 cm high), one illuminated with white PVC walls and the other in the dark with black PVC walls and a grid floor. A guillotine door separated the compartments. A 60 W lamp was positioned 40 cm above the box and illuminated the white compartment. Electric shocks (0.3 mA for 3 s) could be delivered to the grid floor using a generator (Lafayette Instruments, Lafayette, USA). The test comprised a training session and a test session. The guillotine door was closed during the training session. Each mouse was placed in the white compartment. After 5 seconds, the door was raised. When the mouse entered the darkened compartment and placed all four feet in contact with the grid floor, the door was closed and the electric shocks were delivered for 3 seconds. The time taken by the mouse to re-enter the darkened compartment (STL-Tg) and the number of vocalizations were recorded. The test session was conducted 24 hours after the training session. Each mouse was placed back into the illuminated white compartment. After 5 s the door was raised, the step-through latency (STL-R), i.e. the time it took the mouse to enter the darkened compartment, was measured. The maximum duration was 300 s. Mice with a STL-Tg>30 s or a STL-Tg and a STL-R<10 s were not considered for the test. […]

Structure (SMILES) | Alternation (%) [1] | Number of entries [1] | protective effect on latency in the passive avoidance test, effective doses [2] | GFAP labelling (astrocytic response) ([3]; all brain areas tested (Rad, Mol, PoDG, LPtA)) | Latency [4] | GFAP labelling (astrogliosis) ([3]; Mol) | GFAP labelling (astrocytic response) ([3]; PoDG area)
NC12CC3CC(C1)CC(CCF)(C3)C2 [FENM, 3-(2-fluoroethyl)adamantan-1-amine] | 63.7 ± 4.2% | 32.7 ± 3.4 | procured neuroprotection as regards memory for all doses tested from 0.1 mg/Kg i.p. up to and including 3 mg/Kg | significantly decreases the astrocytic and microglial response in all of the brain areas tested | 183.0 ± 38.4 s |  | 
CC12CC3CC(C)(C1)CC(N)(C3)C2 [memantine, 3,5-Dimethyl-1-adamantanamine, reference compound] | 48.8 ± 3.0 % | 28.2 ± 2.9 | only observed at two of the doses tested (0.1 and 1 mg/Kg i.p.) |  | 56.0 ± 31.1 s | no effect on astrogliosis in the Mol | positive effect in the PoDG area
